Data: patent US20070032502A1, “Quinazoline derivatives useful in cancer treatment” (Schering Corporation, priority 2005, published 2007)
Where two headings read alike, the source gives them in different places. Values belong to the molecule of their own block, whether it stands above or below them.

Tests used:
MB468 = assay: Proliferation assay (Calcein AM viability, 72 hours); format: cell-based
Description: This assay measures the growth suppression effects of small molecules in cells with mutant p53 vs. p53 null background. It uses Calcein AM to measure cellular viability. Cells (p53 null and mutant) are harvested and plated at 5000 cells per well in a 96-well tissue culture plate. The volume of cells in growth media is 100 µl. Serial dilutions (2× concentration) of compounds are then made and transferred to the plate of cells. The volume of compounds in the growth media is 100 μL. This dilution of compound with cells gives a 1× final dilution of compound (200 μL total volume). Plates are then incubated at 37° C. for 72 hours. Media is then poured off and Calcein AM is added at the appropriate concentration and the plates are incubated in the dark for 15 minutes and read for fluorescence. […] Compounds having EC50 values of 6 uM or higher have been assigned the letter “D”. These letter rating has been used throughout in the data tables above.

[1] = target: GST-p53 DNA binding domain (aa 92-aa 312) (Homo sapiens, UniProt P04637); assay: Scintillation Proximity Assay (SPA), displacement of 3H STANDARD COMPOUND; conditions: for remaining activity at 2 µg/mL: 1 h
Chain of GST-p53 DNA binding domain (aa 92-aa 312) (P04637 92-312): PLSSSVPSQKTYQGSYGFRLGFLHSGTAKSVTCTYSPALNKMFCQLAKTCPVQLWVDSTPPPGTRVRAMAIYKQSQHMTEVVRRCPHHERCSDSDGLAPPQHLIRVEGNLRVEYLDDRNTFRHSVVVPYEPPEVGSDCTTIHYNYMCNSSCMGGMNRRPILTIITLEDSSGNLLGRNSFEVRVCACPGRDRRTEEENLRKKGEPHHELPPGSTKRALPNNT
From the text: Most of the oncogenic mutants of the tumor suppressor protein p53 lack sequence specific DNA binding activity at physiological temperature due to conformational changes in the DNA binding domain. Small molecules and peptide which bind to the p53 DNA binding domain stabilize the conformation and restore DNA binding activity to mutant p53 protein (Science 286, 2507-2510, 1999; PNAS, 99, 937-942, 2002). Using ^3H STANDARD COMPOUND (which is ^3H of the compound #1 of the present invention; the * Carbon atom is the one labeled; structure shown below), [drawing 2234] a radio labeled small molecule which binds to p53, and the GST-p53 DNA binding domain (aa 92-aa 312), we have developed a quantitative screening assay. The assay is based on Scintillation Proximity Assay (SPA) technology, developed by Amersham Biosciences to measure molecular interactions. Briefly, the complex of GST-p53, ^3H STANDARD and Glutathione-SPA beads (Amersham Biosciences) are incubated with mixing for 1 hr at room temperature in the presence of the novel compounds to be screened. The signal is read on Microbeta. The compounds which have the ability to displace ^3H STANDARD COMPOUND are selected. Such molecules will stabilize the conformation and restore DNA binding activity to mutant p53 protein.
The above assay was used to determine the ability of the compounds of this invention to restore DNA binding activity to mutant p53 and the results for selected compounds have been given above in various tables.
A letter rating corresponding to % Residual total binding (T) @ 2 ug/mL of drug (i.e., compound of the present invention) from this assay have been assigned as follows: Compounds having % Residual T values of from 0% to less than 20% have been assigned the letter “A”. Compounds having % Residual T values of from 20% to less than 40% have been assigned the letter “B”. Compounds having % Residual T values of from 40% to less than 80% have been assigned the letter “C”. Compounds having % Residual T values of 80% or higher have been assigned the letter “D”. The exact % Residual T values @ 2 ug/mL for some illustrative compounds are shown below: […]

[2] = system: Human tumor DLD1 cells containing mutant p53; assay: Soft agar assay (colony outgrowth); format: cell-based; conditions: DLD-1, 10-16 days
Description: This method assesses the ability of cells to grow in the absence of adhesion, which is a characteristic of tumorigenic cell lines.
Human tumor DLD1 cells containing mutant p53 are suspended in growth medium containing 0.3% agarose and an indicated concentration of small molecule. The solution is overlayed onto growth medium solidified with 0.6% agarose containing the same concentration of the small molecule as the top layer. After the top layer is solidified the plates are incubated for 10-16 days at 37° C. under 5% CO2 to allow colony outgrowth. After incubation, colonies are stained by overlaying the agar with a solution of MTT (3-[4,5-dimethyl-thiazol-2-yl]-2,5-diphenyltetrazolium bromide; Thiazolyl blue; […] in PBS). Colonies are counted to measure growth and efficacy of the small molecule.

pancreatic cells = assay: Potentiation of growth suppression with temozolomide (proliferation assay, temozolomide IC50); format: cell-based; conditions: for IC50: Homo sapiens, TMZ alone
Description: (§1) That the compounds of the present invention potentiate the growth suppression activity of temozolomide is illustrated by the fact that the compounds lower the temolozomide IC50 in various cell lines. The proliferation assay used is similar to that set forth above, and comprises the following general steps. • TMZ is diluted 2 fold in complete medium. • Cells are harvested and placed in each well with diluted TMZ. Cell conc. is 5000 cells per well in complete medium. • Appropriate concentration of compounds of present invention are then added to each well in combination with diluted TMZ. • Plates are incubated at 37° C. for 72 hrs. • Medium is poured off and 50 μL per well of Calcein AM (10 uM is added. Plate is then read in the fluorescent plate reader.
The extent of increase can be quantitated as is shown below in FIG. 5.

U87 = assay: Potentiation of growth suppression with temozolomide (proliferation assay, temozolomide IC50), U87 glioma cells; format: cell-based; conditions: Homo sapiens, U-87 MG, p53 wild, TMZ alone
Description: as §1

LN 18 = assay: Potentiation of growth suppression with temozolomide (proliferation assay, temozolomide IC50), LN 18 glioma cells; format: cell-based; conditions: Homo sapiens, p53 mutant, TMZ alone
Description: as §1

[3] = 72 h, MB468 cells, 72 hours, read-out: EC50 rating according to the proliferation assay (MB468)
[4] = 72 h, MB468 cells, 72 hours, read-out: PROLIFERATION ASSAY EC50 MB468
[5] = 2 ug/mL of drug, lower is better, read-out: % Residual T @ 2 ug/mL rating according to scintillation proximity assay (SPA)
[6] = 2 ug/mL of drug, lower is better, read-out: SPA ASSAY % Residual T @ 2 ug/mL of drug (Average of)

remaining activity at 2 µg/mL [1, 6]: 27.9%
SMILES: CN(C)CCCNc1nc(CN2CCN(Cc3cccc4ccccc34)CC2)nc2ccccc12 [Example 25-36]
EC50 (MB468; [4]): 2 µM
EC50 (MB468; MB468 cells, read-out: PROFILE-RATION ASSAY EC50 MB468): 4 to 6 µM
SPA Assay (% residual T @ 2 ug/mL of drug) ([1]; 2 ug/mL of drug): B (Compounds having % Residual T values of from 20% to less than 40% have been assigned the letter “B”)
sensitivity of pancreatic cancer cells to temozolomide (pancreatic cells; in combination with temozolomide, 72 hrs): increase in sensitivity

remaining activity at 2 µg/mL ([1]; read-out: SPA ASSAY (% residual T @ 2 ug/mL of drug)): > 80%
SMILES: COC(=O)C1CCN(c2nc(CN3CCN(C(c4ccc(Cl)cc4)c4ccc(Cl)cc4)CC3)nc3ccccc23)CC1 [Example 30-29]
EC50 (MB468; MB468, read-out: PROLIFERATION ASSAY EC50 MB468): 4 to 6 µM

More lines, now with the values behind:

SMILES: CN(C)CCCNc1nc(CN2CCN(C(c3ccc(Cl)cc3)c3ccc(Cl)cc3)CC2)nc2ccccc12 [Example 1, N′-(2-{4-[BIS-(4-CHLOROPHENYL)METHYL]PIPERAZIN-1-YLMETHYL}QUINAZOLIN-4-YL)-N,N-DIMETHYLPROPANE-1,3-DIAMINE]
EC50 (MB468; [3]): < 2 µM
EC50 (MB468; [4]): 1.1 µM
remaining activity at 2 µg/mL [1, 5]: 0 to 20%
remaining activity at 2 µg/mL [1, 6]: 16.1%
IC50 [2]: 0.39 µM

SMILES: Cn1nnc2c(C(N)=O)ncn2c1=O [TMZ, temozolomide]
IC50 (pancreatic cells; MIA PaCa-2, Miapaca-2, Pancreas, p53 mutant): 3320 µM
IC50 (pancreatic cells; Capan-1, Pancreas, p53 mutant): 2860 µM
IC50 (pancreatic cells; Capan-2, Pancreas, p53 wild): 4310 µM
IC50 (U87): 2540 µM
IC50 (LN 18): 2700 µM

SMILES: CN(C)CCCNc1nc(CN2CCN(C(c3ccccc3)c3ccc(OC(F)(F)F)cc3)CC2)nc2ccccc12 (single isomer, unassigned; (+)) [11 isomer 1, (+)-N,N-DIMETHYL-N′-[2-{4-[PHENYL-(4-TRIFLUOROMETHOXYPHENYL)METHYL]-PIPERAZIN-1-YLMETHYL}QUINAZOLIN-4-YL]PROPANE-1,3-DIAMINE]
EC50 (MB468; [3]): < 2 µM
remaining activity at 2 µg/mL [1, 5]: 20 to 40%

SMILES: CN(C)CCCOc1nc(CN2CCN(C(c3ccc(Cl)cc3)c3ccc(Cl)cc3)CC2)nc2ccccc12 [Example 16, [3-(2-{4-[BIS-(4-CHLOROPHENYL)METHYL]PIPERAZIN-1-YLMETHYL}QUINAZOLIN-4-YLOXY)PROPYL]DIMETHYLAMINE]
EC50 (MB468; 72 h, read-out: EC50 rating according to the proliferation assay (MB468)): > 6 µM
remaining activity at 2 µg/mL ([1]; read-out: % Residual T @ 2 ug/mL rating according to scintillation proximity assay (SPA)): > 80%
